Legend:
[1] = system: intervertebral discs (annulus fibrosus); test: Intraoperative imaging of the spine in a pig; format: in vivo, Yorkshire pig; conditions: 0.47 mg/kg IV, 5 h
Procedure: Imaging was carried out at near infrared wavelenghts using a 400- to 700-nm “white” light (0.5 mW/cm^2) and a 725- to 775-nm NIR fluorescence excitation light (5 mW/cm^2). Fluorescence images were collected using exposure times ranging from 500 to 2000 msec. All images collected for comparison between vehicle-injected control animals and FM fluorophore-injected animals had the same exposure time and normalization. Color video images were collected on a separate optical channel using custom designed software. The excitation and emission LEDs and filter used for the FM fluorophores and Pam800 in the intraoperative imaging system are described as follows. For fluorescence excitation of FM 1-43, FM 2-10, FM 1-43FX and Formula IA, sixty 5-mm 470 nm LEDs ([…], Inc., Kyoto, Japan) fitted with 470±20 nm band pass (BP) excitation filters (Chroma Technology, Rockingham, Vt.) in custom holders were used, which produced a fluence rate on the imaging surface of 0.56 mW/cm^2. For fluorescence excitation of Formula II, FM 4-64, FM 4-64FX and FM 5-95, sixty 5-mm 535 nm LEDs fitted with 525±25 nm BP excitation filters were used, which produced a fluence rate on the imaging surface of 0.34 mW/cm^2. A 610±38 nm BP filter was used to detect fluorescence emission of FM 1-43, FM 2-10, Formula II, FM 1-43FX and Formula IA. To detect fluorescence emission of FM 4-64, FM 4-64FX and FM 5-95 a 720 nm long pass (LP) filter was used. For fluorescence excitation of Pam800, 348 5-mm 760 nm LEDs fitted with 764±17 nm BP excitation filters were used, which produced a fluence rate on the imaging surface of 8.73 mW/cm^2 and fluorescence emission was detected using a 824±24 nm BP emission filter. FORMULA IA was also evaluated in a Yorkshire pig. […] The pig was monitored under anesthesia during the drug incubation period, after which the animal was sacrificed. […] Tissues from mice, rats and pig were preserved for microscopic assessment and localization of fluorescence signal. […] Exposure times were adjusted between 5 and 2000 ms for fluorescence images.

intervertebral discs = test: Two-wavelength imaging of resected spine with Pam800 and FORMULA IA; format: in vivo, Sprague-Dawley rat; conditions: rat
Procedure: Imaging was carried out at near infrared wavelenghts using a 400- to 700-nm “white” light (0.5 mW/cm^2) and a 725- to 775-nm NIR fluorescence excitation light (5 mW/cm^2). Fluorescence images were collected using exposure times ranging from 500 to 2000 msec. All images collected for comparison between vehicle-injected control animals and FM fluorophore-injected animals had the same exposure time and normalization. Color video images were collected on a separate optical channel using custom designed software. The excitation and emission LEDs and filter used for the FM fluorophores and Pam800 in the intraoperative imaging system are described as follows. For fluorescence excitation of FM 1-43, FM 2-10, FM 1-43FX and Formula IA, sixty 5-mm 470 nm LEDs (Epitex, Inc., Kyoto, Japan) fitted with 470±20 nm band pass (BP) excitation filters (Chroma Technology, Rockingham, Vt.) in custom holders were used, which produced a fluence rate on the imaging surface of 0.56 mW/cm^2. For fluorescence excitation of Formula II, FM 4-64, FM 4-64FX and FM 5-95, sixty 5-mm 535 nm LEDs fitted with 525±25 nm BP excitation filters were used, which produced a fluence rate on the imaging surface of 0.34 mW/cm^2. A 610±38 nm BP filter was used to detect fluorescence emission of FM 1-43, FM 2-10, Formula II, FM 1-43FX and Formula IA. […]

Structure (SMILES): CCCCN(CCCC)c1ccc(/C=C/c2cc[n+](CCC[N+](C)(C)C)cc2)cc1.[Br-].[Br-] [Formula IA, (E)-4-(4-(dibutylamino)styryl)-1-(3-(trimethylammonio)propyl)pyridinium dibromide]
- contrast in the intervertebral discs of the pig [1]: dramatic positive contrast
- origin of signal within the disc (sagittal and axial sectioning) [1]: majority of the signal was emanating from the annulus fibrosus, and not the nucleus pulposus
- microscopic fluorescence pattern in disc sections ([1]; fluorescence microscopy vs H&E): punctate and linear following the lamellae structures of the annulus fibrosus
- overlap of signals with Pam800 (bone) (intervertebral discs; 7.5 nmol Pam800 16 h and 2 mg/kg Formula IA 4 h post-IV): no overlap
- specificity of fluorescence signal in the spine (intervertebral discs; 2 mg/kg IV, 4 h, sagittal spine and disc cross-section): specific for the intervertebral discs
